From ChEMBL document CHEMBL1201862, “PubChem BioAssay data set” (2004)
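Each compound was tested at five concentrations against cells in 96-well plates for 48 hours. GI50 is the concentration that inhibits growth by half.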 Active and inactive are the calls of the source. Cut-off read from the data, not from the text of the source: active = GI50 up to about 1.1 µM and inactive = higher.

What was measured:
Assay in all cases: growth of human tumour cells (NCI), 48 h
[1] = system: LXFL 529
[2] = system: DMS-273
[3] = system: HOP-18
[4] = system: XF498
[5] = system: DMS-114
[6] = system: DLD-1
[7] = system: KM-20L2
[8] = system: RXF 631
[9] = system: BT-549

In the case of `CCC(=O)N1C(=O)OCC1C(C)C` (stereo not given), the GI50 [1] is reported as > 100 µM (inactive), the GI50 [2] is reported as > 100 µM (inactive) and the GI50 [3] is reported as 15.8 µM (inactive). For the same compound, the GI50 [4] was > 100 µM (inactive), the GI50 [5] was > 100 µM (inactive) and the GI50 [6] was > 100 µM (inactive). The GI50 [7] was > 100 µM (inactive) and the GI50 [8] was > 100 µM (inactive).

For `CC1CC(=O)Nc2ccc(Cl)cc2N1C(=O)CN1CCC(CCCCN(C)C)CC1` (stereo not given), the GI50 [1] was > 100 µM (inactive), the GI50 [2] was > 100 µM (inactive) and the GI50 [3] was > 100 µM (inactive). The GI50 [5] was > 100 µM (inactive), the GI50 [6] was > 100 µM (inactive) and the GI50 [7] was 43.2 µM (inactive). For the same compound, the GI50 [8] was > 100 µM (inactive).

In the case of `CCCCCCCCCCCCCC(=O)CSCCNC(=O)CCNC(=O)[C@@H](O)C(C)(C)COP(=O)(O)OP(=O)(O)OCC1OC(n2cnc3c(N)ncnc32)C(O)C1OP(=O)(O)O` (stereo not given in full), the GI50 [1] is reported as 17.5 µM (inactive), the GI50 [2] is reported as 11.2 µM (inactive) and the GI50 [3] is reported as 17.5 µM (inactive). For the same compound, the GI50 [4] was 18.5 µM (inactive), the GI50 [5] was 15.6 µM (inactive) and the GI50 [6] was 19 µM (inactive). For the same compound, the GI50 [7] was 19.4 µM (inactive).

`COc1cc(/C=N/c2nncs2)ccc1O` was tested, and the GI50 [1] was > 100 µM (inactive), the GI50 [2] was > 100 µM (inactive) and the GI50 [3] was > 100 µM (inactive). The GI50 [4] was > 100 µM (inactive), the GI50 [5] was > 100 µM (inactive) and the GI50 [7] was > 100 µM (inactive). The GI50 [8] was > 100 µM (inactive).

For `Cc1cc(O)c2c(c1)C(O)(c1ccc3c(c1O)C(=O)c1c(O)cc(C)cc1C3(O)C1OC(CO)C(O)C(O)C1O)c1cccc(O)c1C2=O` (stereo not given), the GI50 [1] was 11.9 µM (inactive), the GI50 [2] was 15.1 µM (inactive) and the GI50 [3] was 5.06 µM (inactive). For the same compound, the GI50 [4] was 5.08 µM (inactive), the GI50 [5] was 9.91 µM (inactive) and the GI50 [6] was 11.5 µM (inactive). For the same compound, the GI50 [7] was 18.6 µM (inactive) and the GI50 [8] was 16 µM (inactive).

In the case of `C[C@H]1NC(=O)C2CCCCN2C(=O)CN(C)C(=O)CNC(=O)C2CCCCN2C(=O)[C@@H](NC(=O)c2nc3ccccc3cc2O)[C@@H](C)NC(=O)C2CCCCN2C(=O)CN(C)C(=O)CNC(=O)[C@@H]2CCCCN2C(=O)C1NC(=O)c1nc2ccccc2cc1O` (stereo not given in full), the GI50 [1] is reported as 0.14 µM (active), the GI50 [2] is reported as 0.0255 µM (active) and the GI50 [5] is reported as 0.23 µM (active). The GI50 [7] was 0.378 µM (active) and the GI50 [8] was 0.164 µM (active).

For `N#CC(C#N)=C1NN=C(Cl)c2ccccc21`, the GI50 [1] was 65 µM (inactive), the GI50 [2] was > 100 µM (inactive) and the GI50 [3] was 37.3 µM (inactive). For the same compound, the GI50 [5] was > 100 µM (inactive), the GI50 [6] was > 100 µM (inactive) and the GI50 [7] was > 100 µM (inactive). For the same compound, the GI50 [8] was 80.5 µM (inactive).

`Cc1cccc(C)c1NC(=O)C(=O)C1C(=O)NC(=O)NC1=O` was tested, and the GI50 [1] was > 100 µM (inactive), the GI50 [2] was > 100 µM (inactive) and the GI50 [3] was > 100 µM (inactive). The GI50 [4] was > 100 µM (inactive), the GI50 [5] was > 100 µM (inactive) and the GI50 [6] was > 100 µM (inactive). For the same compound, the GI50 [7] was > 100 µM (inactive) and the GI50 [8] was > 100 µM (inactive).

`O=S1(=O)OCCOS(=O)(=O)C1I` was tested, and the GI50 [1] was > 100 µM (inactive), the GI50 [2] was > 100 µM (inactive) and the GI50 [4] was > 100 µM (inactive). The GI50 [5] was > 100 µM (inactive), the GI50 [6] was > 100 µM (inactive) and the GI50 [8] was > 100 µM (inactive).

With `OCC(O)C(O)C(O)c1nn(-c2ccc(Cl)cc2)c2nc3cc(Cl)c(Cl)cc3nc12` (stereo not given) the GI50 [1] was 33 µM (inactive), the GI50 [2] was > 100 µM (inactive) and the GI50 [3] was 31.9 µM (inactive). The GI50 [4] was 11.1 µM (inactive), the GI50 [5] was 94.4 µM (inactive) and the GI50 [6] was > 100 µM (inactive). For the same compound, the GI50 [7] was > 100 µM (inactive).

For `COC(=O)C(CC=O)C(=O)C(=O)Nc1cccc(C(F)(F)F)c1` (stereo not given), the GI50 [1] was > 100 µM (inactive), the GI50 [3] was > 100 µM (inactive) and the GI50 [4] was > 100 µM (inactive). The GI50 [5] was > 100 µM (inactive), the GI50 [6] was > 100 µM (inactive) and the GI50 [7] was > 100 µM (inactive). The GI50 [8] was > 100 µM (inactive).

With `Clc1ccc(/C=C/c2csnn2)cc1` the GI50 [1] was > 100 µM (inactive), the GI50 [2] was > 100 µM (inactive) and the GI50 [3] was > 100 µM (inactive). The GI50 [4] was > 100 µM (inactive), the GI50 [5] was > 100 µM (inactive) and the GI50 [6] was > 100 µM (inactive). The GI50 [7] was > 100 µM (inactive).

In the case of `O=C1NC(Cc2ccccc2)C(=O)N2CCCC12` (stereo not given), the GI50 [1] is reported as > 100 µM (inactive), the GI50 [2] is reported as > 100 µM (inactive) and the GI50 [3] is reported as > 100 µM (inactive). For the same compound, the GI50 [4] was > 100 µM (inactive), the GI50 [5] was > 100 µM (inactive) and the GI50 [6] was > 100 µM (inactive). For the same compound, the GI50 [7] was > 100 µM (inactive).

`COc1cc2c(cc1O)[C@H](Cc1ccc(Oc3cc(C[C@H]4c5cc(OC)c(OC)cc5CCN4C)ccc3OC)cc1)NCC2` was tested, and the GI50 [1] was 13.7 µM (inactive), the GI50 [2] was 19.5 µM (inactive) and the GI50 [3] was 17.1 µM (inactive). The GI50 [4] was 11.2 µM (inactive), the GI50 [5] was 18.7 µM (inactive) and the GI50 [7] was 10.1 µM (inactive). The GI50 [8] was 15.5 µM (inactive).

`CC(C)c1ccc(C(c2ccc(OCC(=O)O)cc2)c2ccc(C(C)C)cc(=O)c2O)c(O)c(=O)c1` was tested, and the GI50 [1] was 4.5 µM (inactive), the GI50 [2] was 3.45 µM (inactive) and the GI50 [3] was 9.89 µM (inactive). The GI50 [4] was 2.63 µM (inactive), the GI50 [5] was 2.92 µM (inactive) and the GI50 [6] was 3.48 µM (inactive). The GI50 [7] was 3.54 µM (inactive) and the GI50 [8] was 5.08 µM (inactive).

`COC(=O)C1CC(OC(C)=O)C=C2C(=O)CCC21` (stereo not given) was tested, and the GI50 [1] was 15.5 µM (inactive), the GI50 [2] was 17.2 µM (inactive) and the GI50 [3] was 20.5 µM (inactive). The GI50 [5] was 15 µM (inactive), the GI50 [6] was 14.5 µM (inactive) and the GI50 [7] was 30.2 µM (inactive). The GI50 [8] was 27.5 µM (inactive).

With `Cc1cc2c(=O)cc(-c3ccc(C(=O)O)cc3)oc2c(C(N)=O)c1C` the GI50 [1] was > 100 µM (inactive), the GI50 [2] was > 100 µM (inactive) and the GI50 [5] was > 100 µM (inactive). For the same compound, the GI50 [6] was > 100 µM (inactive), the GI50 [7] was > 100 µM (inactive) and the GI50 [8] was > 100 µM (inactive).

For `CCCNCc1nc2ccc(Br)cc2c(=O)n1CCC`, the GI50 [1] was 12.6 µM (inactive), the GI50 [2] was 12.4 µM (inactive) and the GI50 [3] was 18.1 µM (inactive). The GI50 [4] was 16.9 µM (inactive), the GI50 [5] was 10.8 µM (inactive) and the GI50 [6] was 8.09 µM (inactive). The GI50 [7] was 19.2 µM (inactive) and the GI50 [8] was 7.05 µM (inactive).

In the case of `N#CC1(C#N)C(c2ccccc2)C=CC12OCCCO2` (stereo not given), the GI50 [1] is reported as 28.5 µM (inactive), the GI50 [2] is reported as 32.3 µM (inactive) and the GI50 [3] is reported as > 100 µM (inactive). The GI50 [4] was 49.4 µM (inactive), the GI50 [5] was 24.3 µM (inactive) and the GI50 [6] was 26 µM (inactive). For the same compound, the GI50 [7] was 68.5 µM (inactive) and the GI50 [8] was 81.3 µM (inactive).

In the case of `Cn1c(CCC#N)nc2ccc(Br)cc2c1=O`, the GI50 [1] is reported as > 100 µM (inactive), the GI50 [4] is reported as > 100 µM (inactive) and the GI50 [5] is reported as > 100 µM (inactive). For the same compound, the GI50 [6] was > 100 µM (inactive), the GI50 [7] was > 100 µM (inactive) and the GI50 [8] was > 100 µM (inactive).

In the case of `CC(=O)/C(C)=N/NC(=O)c1ccccc1O`, the GI50 [1] is reported as > 10 µM (inactive), the GI50 [2] is reported as > 10 µM (inactive) and the GI50 [3] is reported as > 10 µM (inactive). For the same compound, the GI50 [4] was > 10 µM (inactive), the GI50 [9] was > 100 µM (inactive) and the GI50 [5] was > 10 µM (inactive). For the same compound, the GI50 [6] was > 10 µM (inactive), the GI50 [7] was > 10 µM (inactive) and the GI50 [8] was > 10 µM (inactive).
